Data on 21 molecules can be found in ChEMBL document CHEMBL4261530, “Rational design and synthesis of novel phenylsulfonyl-benzamides as anti-prostate cancer agents” (Medchemcomm, 2017).

The structures appear in SMILES notation.

The test system of test [1] is LNCaP. The experiment in a line: Antiproliferative activity against human LNCAP cells after 96 hrs by propidium iodide staining-based fluorescence assay. It counts as functional, cell-based.
In test [2] the test system is VCaP. The experiment in a line: Potency index, ratio of enzalutamide IC50 to test compound IC50 for human VCaP cells. It counts as functional.
The subject of test [3] is CWR22R. The experiment in a line: Antiproliferative activity against human 22Rv1 cells after 96 hrs by propidium iodide staining-based fluorescence assay. It counts as functional, cell-based.
For test [4], the system named is DU-145. The experiment in a line: Potency index, ratio of enzalutamide IC50 to test compound IC50 for human DU145 cells. In kind it is functional.
The subject of test [5] is DU-145. The experiment in a line: Antiproliferative activity against human DU145 cells after 96 hrs by propidium iodide staining-based fluorescence assay. It counts as functional, cell-based.
Test [6] has as its system VCaP. The experiment in a line: Antiproliferative activity against human VCaP cells after 96 hrs by propidium iodide staining-based fluorescence assay. It counts as functional, cell-based.
The subject of test [7] is LNCaP. The experiment in a line: Potency index, ratio of enzalutamide IC50 to test compound IC50 for human LNCAP cells. It counts as functional.
In test [8] the test system is CWR22R. The experiment in a line: Potency index, ratio of enzalutamide IC50 to test compound IC50 for human 22Rv1 cells. It counts as functional.

Take `O=C(Nc1ccc([N+](=O)[O-])c(C(F)(F)F)c1)c1ccc(Sc2ccc(O)cc2)cc1`: the Activity entry in the test on LNCaP [1], in the test on CWR22R [3], with DU-145 [5] and in the test with VCaP [6] was “Dose-dependent effect” throughout. Also, the “Ratio IC50” value in the test on VCaP [2], in the test on DU-145 [4], with LNCaP [7] and in the test on CWR22R [8] was “<=8” in each case.
Take `O=C(Nc1ccc([N+](=O)[O-])c(C(F)(F)F)c1)c1ccc(S(=O)(=O)c2ccc(O)cc2)cc1`: the Activity entry in the test on LNCaP [1], in the test on CWR22R [3], in the test on DU-145 [5] and in the test on VCaP [6] was “Dose-dependent effect” each time. In addition, the “Ratio IC50” value with VCaP [2], with DU-145 [4], with LNCaP [7] and in the test with CWR22R [8] was “<=8” each time.
For `O=C(Nc1ccccc1C(F)(F)F)c1ccc([S+]([O-])c2ccc(O)cc2)cc1` (stereo not given), the Activity result with LNCaP [1], with CWR22R [3], in the test with DU-145 [5] and with VCaP [6] was “Dose-dependent effect” each time.
As for `O=C(Nc1cc(C(F)(F)F)ccc1C(F)(F)F)c1ccc(S(=O)(=O)c2ccc(O)cc2)cc1`, the Activity entry in the test with LNCaP [1], in the test with CWR22R [3], in the test on DU-145 [5] and in the test on VCaP [6] was “Dose-dependent effect” each time. Moreover, the “Ratio IC50” value in the test with VCaP [2], in the test with DU-145 [4], in the test on LNCaP [7] and with CWR22R [8] was “<=8” throughout.
Turning to `O=C(Nc1ccccc1C(F)(F)F)c1ccc(S(=O)(=O)c2ccc(O)cc2)cc1`, the Activity result with LNCaP [1], in the test on CWR22R [3], with DU-145 [5] and in the test on VCaP [6] was “Dose-dependent effect” throughout. The “Ratio IC50” value with VCaP [2], in the test on DU-145 [4], in the test on LNCaP [7] and in the test with CWR22R [8] was “<=8” each time.
Take `O=C(Nc1cccc(C(F)(F)F)c1)c1ccc(S(=O)(=O)c2ccc(O)cc2)cc1`: the Activity entry in the test with LNCaP [1], with CWR22R [3], in the test on DU-145 [5] and in the test with VCaP [6] was “Dose-dependent effect” each time. Besides, the “Ratio IC50” value in the test with VCaP [2], with DU-145 [4], in the test on LNCaP [7] and with CWR22R [8] was “<=8” throughout.
As for `O=C(Nc1cccc(C(F)(F)F)c1)c1ccc(S(=O)(=O)c2cccc(C(F)(F)F)c2)cc1`, the IC50 entry with LNCaP [1], in the test on CWR22R [3], in the test on DU-145 [5] and with VCaP [6] was “Nd(Insoluble)” each time.
As for `N#Cc1ccc(NC(=O)c2ccc(S(=O)(=O)c3cccc(C(F)(F)F)c3)cc2)cc1C(F)(F)F`, the Activity result with LNCaP [1], with CWR22R [3], with DU-145 [5] and in the test on VCaP [6] was “Dose-dependent effect” throughout. The “Ratio IC50” value in the test with VCaP [2], in the test with DU-145 [4], in the test on LNCaP [7] and in the test with CWR22R [8] was “<=8” in each case.
For `O=C(Nc1cccc(S(F)(F)(F)(F)F)c1)c1ccc(S(=O)(=O)c2ccc(O)cc2)cc1`, the Activity result in the test on LNCaP [1], in the test on CWR22R [3], in the test on DU-145 [5] and in the test on VCaP [6] was “Dose-dependent effect” throughout. Moreover, the “Ratio IC50” value with VCaP [2], in the test with DU-145 [4], with LNCaP [7] and in the test on CWR22R [8] was “<=8” in each case.
Regarding `N#Cc1ccc(NC(=O)c2ccc(S(=O)(=O)c3ccc(O)cc3)cc2)cc1C(F)(F)F`, the Activity result with LNCaP [1], with CWR22R [3], in the test on DU-145 [5] and in the test with VCaP [6] was “Dose-dependent effect” each time. Also, the “Ratio IC50” value in the test with VCaP [2], with DU-145 [4], with LNCaP [7] and in the test on CWR22R [8] was “<=8” in each case.
For `O=C(Nc1ccc(C(F)(F)F)cc1)c1ccc(Sc2ccc(O)cc2)cc1`, the Activity result in the test on LNCaP [1], in the test on CWR22R [3], in the test on DU-145 [5] and in the test on VCaP [6] was “Dose-dependent effect” each time. For the same molecule, the “Ratio IC50” value in the test with VCaP [2], in the test with DU-145 [4], in the test with LNCaP [7] and with CWR22R [8] was “<=8” each time.
As to `O=C(Nc1cccc(S(F)(F)(F)(F)F)c1)c1ccc(Sc2ccc(O)cc2)cc1`, the Activity result in the test with LNCaP [1], in the test on CWR22R [3], in the test on DU-145 [5] and in the test with VCaP [6] was “Dose-dependent effect” throughout. Further, the “Ratio IC50” value with VCaP [2], with DU-145 [4], in the test with LNCaP [7] and with CWR22R [8] was “<=8” each time.
For the molecule `O=C(Nc1ccc(C(F)(F)F)cc1)c1ccc(S(=O)(=O)c2ccc(O)cc2)cc1`, the Activity result with LNCaP [1], with CWR22R [3], in the test with DU-145 [5] and with VCaP [6] was “Dose-dependent effect” throughout. Also, the “Ratio IC50” value in the test on VCaP [2], with DU-145 [4], in the test with LNCaP [7] and in the test on CWR22R [8] was “<=8” throughout.
On to `O=C(Nc1cc(C(F)(F)F)cc(C(F)(F)F)c1)c1ccc(S(=O)(=O)c2ccc(O)cc2)cc1`, for which the Activity result with LNCaP [1], in the test on CWR22R [3], with DU-145 [5] and in the test with VCaP [6] was “Dose-dependent effect” each time. Besides, the “Ratio IC50” value in the test on VCaP [2], in the test with DU-145 [4], in the test with LNCaP [7] and in the test on CWR22R [8] was “<=8” each time.
On to `O=C(Nc1cccc(C(F)(F)F)c1)c1ccc(Sc2cccc(C(F)(F)F)c2)cc1`, for which the Activity entry with LNCaP [1], in the test on CWR22R [3], in the test with DU-145 [5] and in the test with VCaP [6] was “Dose-dependent effect” in each case. Also, the “Ratio IC50” value with VCaP [2], with DU-145 [4], in the test on LNCaP [7] and in the test with CWR22R [8] was “<=8” throughout.
`O=C(Nc1ccccc1C(F)(F)F)c1ccc(Sc2ccc(O)cc2)cc1`: the Activity result in the test with LNCaP [1], with CWR22R [3], in the test on DU-145 [5] and in the test on VCaP [6] was “Dose-dependent effect” throughout. The “Ratio IC50” value in the test with VCaP [2], with DU-145 [4], in the test on LNCaP [7] and in the test on CWR22R [8] was “<=8” each time.
For the molecule `O=C(Nc1cc(C(F)(F)F)cc(C(F)(F)F)c1)c1ccc(Sc2ccc(O)cc2)cc1`, the Activity result in the test on LNCaP [1], in the test with CWR22R [3], in the test with DU-145 [5] and with VCaP [6] was “Dose-dependent effect” each time. Besides, the “Ratio IC50” value in the test on VCaP [2], in the test with DU-145 [4], in the test with LNCaP [7] and in the test with CWR22R [8] was “<=8” throughout.
Consider `N#Cc1ccc(NC(=O)c2ccc(Sc3cccc(C(F)(F)F)c3)cc2)cc1C(F)(F)F`, for which the Activity entry with LNCaP [1], in the test with CWR22R [3], in the test on DU-145 [5] and in the test on VCaP [6] was “Dose-dependent effect” each time. Also, the “Ratio IC50” value in the test on VCaP [2], with DU-145 [4], in the test with LNCaP [7] and with CWR22R [8] was “<=8” throughout.
Consider `N#Cc1ccc(NC(=O)c2ccc(Sc3ccc(O)cc3)cc2)cc1C(F)(F)F`, for which the Activity result in the test on LNCaP [1], with CWR22R [3], in the test on DU-145 [5] and with VCaP [6] was “Dose-dependent effect” throughout. In addition, the “Ratio IC50” value in the test on VCaP [2], in the test with DU-145 [4], with LNCaP [7] and with CWR22R [8] was “<=8” each time.
Take `O=C(Nc1cccc(C(F)(F)F)c1)c1ccc(Sc2ccc(O)cc2)cc1`: the Activity entry in the test on LNCaP [1], in the test with CWR22R [3], in the test with DU-145 [5] and with VCaP [6] was “Dose-dependent effect” throughout. For the same molecule, the “Ratio IC50” value in the test with VCaP [2], with DU-145 [4], in the test with LNCaP [7] and in the test with CWR22R [8] was “<=8” each time.
On to `O=C(Nc1ccc(S(F)(F)(F)(F)F)cc1)c1ccc([S+]([O-])c2ccc(O)cc2)cc1` (stereo not given), for which the Activity result in the test with LNCaP [1], in the test on CWR22R [3], with DU-145 [5] and in the test on VCaP [6] was “Dose-dependent effect” each time. Besides, the “Ratio IC50” value with VCaP [2], in the test on DU-145 [4], in the test on LNCaP [7] and with CWR22R [8] was “<=8” in each case.
